Source: patent US12023319B2, “Carboxylic acid aromatic amides” (priority 2016, dated 2024)
pIC50: −log10 of the molar value.

Key:
[1] = biological target: T1, human Bradykinin B1 receptor (Homo sapiens, UniProt P46663); test: Calcium flux assay (FLIPR), CHO-K1 cells expressing human Bradykinin B1 receptor, absence of 0.1% BSA (hB1 free IC50); assay type: cell-based; conditions: absence of 0.1% BSA in assay buffer
T1 construct: host or cells: CHO-K1
T1 sequence (P46663 1-353): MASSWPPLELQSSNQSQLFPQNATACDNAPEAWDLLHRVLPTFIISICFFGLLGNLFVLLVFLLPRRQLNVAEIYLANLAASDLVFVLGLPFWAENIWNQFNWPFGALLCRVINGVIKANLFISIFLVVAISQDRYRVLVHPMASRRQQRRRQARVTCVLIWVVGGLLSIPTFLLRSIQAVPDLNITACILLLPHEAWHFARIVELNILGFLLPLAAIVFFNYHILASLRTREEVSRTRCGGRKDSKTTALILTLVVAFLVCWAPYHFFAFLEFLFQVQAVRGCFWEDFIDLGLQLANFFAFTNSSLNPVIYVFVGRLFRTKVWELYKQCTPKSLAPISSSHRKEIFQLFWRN
In short: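 Peak FLIPR fluorescence (538 nm) after B1 agonist peptide addition gave IC50s, scaled between DMSO and full block by 20 µM Lys-(Des-Arg-Leu)-Bradykinin. Compounds were preincubated 30 min at 28° C with calcium-dye-loaded CHO-K1 cells expressing human B1, at 8 concentrations in triplicate, 1% DMSO final.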

[2] = biological target: T2, native human Bradykinin B1 receptor (Homo sapiens, UniProt P46663); test: Calcium flux assay (FLIPR) with IMR-90 human fibroblasts expressing Bradykinin B1 receptor after IL-1beta induction (hB1 IMR-90); assay type: cell-based; conditions: IMR-90 human fibroblasts after IL-1beta induction, read-out: hB1 IMR90 IC50
T2 construct: which express native human Bradykinin B1 receptor after induction with human IL-1beta; Coriell Institute; host or cells: IMR-90 human foetal lung fibroblasts, induced with human IL-1beta
T2 sequence (P46663 1-353): T1 sequence (P46663 1-353)
Experimental: Calcium Flux Assay (FLIPR) with Human Fibroblasts Expressing Bradykinin B1 Receptor (hB1 IMR-90)
The Calcium flux Assay was carried out utilising IMR-90 human foetal lung fibroblasts (American Type Culture Collection, Rockville, MD; and Coriell Institute, Camden, New Jersey), which express native human Bradykinin B1 receptor after induction with human IL-1beta.
The fibroblasts were cultured in complete growth media comprised of Dulbecco's modified Eagle's medium (DMEM; Sigma) containing 10% foetal bovine serum, 4 mM L-glutamine, and 1% nonessential amino acids. The cells were maintained in a humidified atmosphere with 5% CO2 at 37° C. and were sub-cultured at a ratio of 1:3, every other day.
For the assay, IMR-90 fibroblasts were harvested using TrypLE Express (GIBCO/Invitrogen) and seeded into 384-well plates (Corning Cellbinding Surface, Cat. 3683) at a density of 15000 cells/well. The following day, cells were treated with 0.35 ng/mL human IL-1beta in 10% FBS/MEM for 3 h to up-regulate Bradykinin B1 receptor. Induced cells were loaded with fluorescent calcium indicator by incubation with 2.5 μM Fluo-4/AM (Invitrogen) at 37° C., 5% CO2 for 2 h in the presence of 2.5 mM probenecid in 1% FBS/MEM. […] Compound examples were assayed at 8 concentrations in triplicate. […] A peptide antagonist Lys-(Des-Arg-Leu)-Bradykinin (Bachem, Brackley) at 20 µM was used to determine the full inhibition as control. IC50 values were determined by the same way described for the FLI PR assay with recombinant cells.

SMILES | pIC50 [1] | pIC50 [2]
O=C(O)c1cc(NC(=O)C2(c3ccc(OC(F)(F)F)cc3F)CC2)ccc1-c1ccc(C(F)(F)F)nc1 [Example 7, 5-[({1-[2-Fluoro-4-(trifluoromethoxy)phenyl]cyclopropyl}carbonyl)amino]-2-[6-(trifluoromethyl)pyridin-3-yl]benzoic acid] | 6.70 | 5.96
CCOc1ccc(-c2ccc(NC(=O)C3(c4cccc(Cl)c4)CC3)cc2C(=O)O)cn1 [Example 9, 5-({[1-(3-Chlorophenyl)cyclopropyl]carbonyl}amino)-2-(6-ethoxypyridin-3-yl)benzoic acid] | 6.85 | 6.49
CCOc1ccc(-c2ccc(NC(=O)C3(c4ccc(OC(F)(F)F)cc4F)CC3)cc2C(=O)O)cn1 [Example 11, 2-(6-Ethoxypyridin-3-yl)-5-[({1-[2-fluoro-4-(trifluoromethoxy)phenyl]cyclopropyl}carbonyl)amino]benzoic acid] | 7.72 | 7.60
CCC(F)(F)c1ccc(-c2ccc(NC(=O)C3(c4ccc(F)c(F)c4)CC3)cc2C(=O)O)cn1 [Example 20, 5-({[1-(3,4-Difluorophenyl)cyclopropyl]carbonyl}amino)-2-[6-(1,1-difluoropropyl)pyridin-3-yl]benzoic acid] | 5.60 | 5.77
CCC(F)(F)c1ccc(-c2ccc(NC(=O)C3(c4ccc(OC(F)(F)F)cc4F)CC3)cc2C(=O)O)cn1 [Example 27, 2-[6-(1,1-Difluoropropyl)pyridin-3-yl]-5-[({1-[2-fluoro-4-(trifluoromethoxy)phenyl]cyclopropyl}carbonyl)amino]benzoic acid] | 7.48 | 7.14
O=C(O)c1cc(NC(=O)C2(c3cccc(Cl)c3)CC2)ccc1-c1cnn(C2CCC2)c1 [Example 28, 5-({[1-(3-Chlorophenyl)cyclopropyl]carbonyl}amino)-2-(1-cyclobutyl-1H-pyrazol-4-yl)benzoic acid] | 6.52 | 6.34
O=C(O)c1cc(NC(=O)C2(c3ccc(C(F)(F)F)cc3)CC2)cc(F)c1-c1cnn(C2CCC2)c1 [Example 36, 2-(1-Cyclobutyl-1H-pyrazol-4-yl)-3-fluoro-5-[({1-[4-(trifluoromethyl)phenyl]cyclopropyl}carbonyl)amino]benzoic acid] | 8.22 | 7.85
O=C(O)c1cc(NC(=O)C2(c3ccc(OC(F)(F)F)cc3)CC2)cc(F)c1-c1cnn(C2CCC2)c1 [Example 37, 2-(1-Cyclobutyl-1H-pyrazol-4-yl)-3-fluoro-5-[({1-[4-(trifluoromethoxy)phenyl]cyclopropyl}carbonyl)amino]benzoic acid] | 7.70 | 8.25
O=C(O)c1cc(NC(=O)C2(c3ccc(C(F)(F)F)c(F)c3)CC2)cc(F)c1-c1cnn(C2CCC2)c1 [Example 39, 2-(1-Cyclobutyl-1H-pyrazol-4-yl)-3-fluoro-5-[({1-[3-fluoro-4-(trifluoromethyl)phenyl]cyclopropyl}carbonyl)amino]benzoic acid] | 7.74 | 8.21
O=C(O)c1cc(NC(=O)C2(c3ccc(F)cc3F)CC2)cc(F)c1-c1cnn(C2CCC2)c1 [Example 40, 2-(1-Cyclobutyl-1H-pyrazol-4-yl)-5-({[1-(2,4-difluorophenyl)cyclopropyl]carbonyl}amino)-3-fluorobenzoic acid] | 7.80 | 7.96
O=C(O)c1cc(NC(=O)C2(c3ccc(Cl)cc3F)CC2)cc(F)c1-c1cnn(C2CCC2)c1 [Example 41, 5-({[1-(4-Chloro-2-fluorophenyl)cyclopropyl]carbonyl}amino)-2-(1-cyclobutyl-1H-pyrazol-4-yl)-3-fluorobenzoic acid] | 8.06 | 8.43
O=C(O)c1cc(NC(=O)C2(c3ccc(F)cn3)CC2)cc(F)c1-c1cnn(C2CCC2)c1 [Example 44, 2-(1-Cyclobutyl-1H-pyrazol-4-yl)-3-fluoro-5-({[1-(5-fluoropyridin-2-yl)cyclopropyl]carbonyl}amino)benzoic acid] | 7.35 | 7.24

The next lines start with the values.

pIC50 [1] | pIC50 [2] | SMILES
6.96 | 5.47 | O=C(O)c1cc(NC(=O)C2(c3ccc(C(F)(F)F)cc3F)CC2)ccc1-c1ccc(C(F)F)nc1 [Example 4, 2-[6-(Difluoromethyl)pyridin-3-yl]-5-[({1-[2-fluoro-4-(trifluoromethyl)phenyl]cyclopropyl}carbonyl)amino]benzoic acid]
7.74 | 7.48 | CCOc1ccc(-c2ccc(NC(=O)C3(c4ccc(C(F)(F)F)cc4F)CC3)cc2C(=O)O)cn1 [Example 10, 2-(6-Ethoxypyridin-3-yl)-5-[({1-[2-fluoro-4-(trifluoromethyl)phenyl]cyclopropyl}carbonyl)amino]benzoic acid]
5.92 | 5.54 | CC(C)(C)c1ccn(-c2ccc(NC(=O)C3(c4ccc(C(F)(F)F)cc4F)CC3)cc2C(=O)O)n1 [Example 12, 2-(3-tert-Butyl-1H-pyrazol-1-yl)-5-[({1-[2-fluoro-4-(trifluoromethyl)phenyl]cyclopropyl}carbonyl)amino]benzoic acid]
6.96 | 6.51 | CC(C)(C)c1cnn(-c2ccc(NC(=O)C3(c4ccc(OC(F)(F)F)cc4F)CC3)cc2C(=O)O)c1 [Example 13, 2-(4-tert-Butyl-1H-pyrazol-1-yl)-5-[({1-[2-fluoro-4-(trifluoromethoxy)phenyl]cyclopropyl}carbonyl)amino]benzoic acid]
6.00 | 5.96 | Cc1ccc(C2(C(=O)Nc3ccc(-n4cc(C(C)(C)C)cn4)c(C(=O)O)c3)CC2)c(F)c1 [Example 14, 2-(4-tert-Butyl-1H-pyrazol-1-yl)-5-({[1-(2-fluoro-4-methylphenyl)cyclopropyl]carbonyl}amino)benzoic acid]
6.64 | 7.00 | CC(C)(C)c1cnn(-c2ccc(NC(=O)C3(c4ccc(C(F)(F)F)cc4F)CC3)cc2C(=O)O)c1 [Example 17, 2-(4-tert-Butyl-1H-pyrazol-1-yl)-5-[({1-[2-fluoro-4-(trifluoromethyl)phenyl]cyclopropyl}carbonyl)amino]benzoic acid]
6.57 | 6.08 | Cc1ccc(-c2ccc(NC(=O)C3(c4ccc(C(F)(F)F)cc4F)CC3)cc2C(=O)O)nc1 [Example 18, 5-[({1-[2-Fluoro-4-(trifluoromethyl)phenyl]cyclopropyl}carbonyl)amino]-2-(5-methylpyridin-2-yl)benzoic acid]
7.17 | 6.89 | Cc1ccc(-c2ccc(NC(=O)C3(c4ccc(C(F)(F)F)cc4F)CC3)cc2C(=O)O)cn1 [Example 19, 5-[({1-[2-Fluoro-4-(trifluoromethyl)phenyl]cyclopropyl}carbonyl)amino]-2-(6-methylpyridin-3-yl)benzoic acid]
7.85 | 8.23 | Cc1ccc(C2(C(=O)Nc3cc(F)c(-c4cnn(C5CCC5)c4)c(C(=O)O)c3)CC2)c(F)c1 [Example 25, 2-(1-Cyclobutyl-1H-pyrazol-4-yl)-3-fluoro-5-({[1-(2-fluoro-4-methylphenyl)cyclopropyl]carbonyl}amino)benzoic acid]
6.85 | 6.89 | CCC(F)(F)c1ccc(-c2ccc(NC(=O)C3(c4ccc(C)cc4F)CC3)cc2C(=O)O)cn1 [Example 26, 2-[6-(1,1-Difluoropropyl)pyridin-3-yl]-5-({[1-(2-fluoro-4-methylphenyl)cyclopropyl]carbonyl}amino)benzoic acid]
7.77 | 7.72 | O=C(O)c1cc(NC(=O)C2(c3ccc(OC(F)(F)F)cc3F)CC2)ccc1-c1cnn(C2CCC2)c1 [Example 51, 2-(1-Cyclobutyl-1H-pyrazol-4-yl)-5-[({1-[2-fluoro-4-(trifluoromethoxy)phenyl]cyclopropyl}carbonyl)amino]benzoic acid]
7.49 | 7.82 | O=C(O)c1cc(NC(=O)C2(c3ccc(Cl)cc3F)CC2)ccc1-c1cnn(C2CCC2)c1 [Example 53, 5-({[1-(4-Chloro-2-fluorophenyl)cyclopropyl]carbonyl}amino)-2-(1-cyclobutyl-1H-pyrazol-4-yl)benzoic acid]
